Reference: patent US9302999B2, “Substituted triazoles as herbicides” (E. I. DU PONT DE NEMOURS AND COMPANY, priority 2012, dated 2016)

Tests used:
Type in all cases: in vivo
soybean (Glycine max) = test: Test C pre-/postemergence: soybean
Method in brief: (§1)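 Preemergence on seeds in loam/sand, postemergence on 2–18 cm (1–4-leaf) plants in peat-based medium; compounds in non-phytotoxic solvent with surfactant. After 13–15 days in greenhouse, visual rating versus controls, 0 (no effect) to 100 (complete control).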

[1] = system: surinam grass (Brachiaria decumbens); test: Test C pre-/postemergence: surinam grass
Description: (§2) Seeds of plant species selected from blackgrass (Alopecurus myosuroides), bromegrass, downy (downy bromegrass, Bromus tectorum), foxtail, green (green foxtail, Setaria viridis), ryegrass, Italian (Italian ryegrass, Lolium multiflorum), winter wheat (Triticum aestivum), wild oat (Avena fatua), galium (catchweed bedstraw, Galium aparine), bermudagrass (Cynodon dactylon), surinam grass (Brachiaria decumbens), cocklebur (common cocklebur, Xanthium strumarium), corn (Zea mays), large crabgrass (Digitaria sanguinalis), woolly cupgrass (Eriochloa villosa), foxtail, giant (giant foxtail, Setaria faberii), goosegrass (Eleusine indica), johnsongrass (Sorghum halepense), kochia (Kochia scoparia), lambsquarters (Chenopodium album), morningglory (Ipomoea coccinea), nightshade (eastern black nightshade, Solanum ptycanthum), nutsedge, yellow (yellow nutsedge, Cyperus esculentus), pigweed (Amaranthus retroflexus), ragweed (common ragweed, Ambrosia elation), soybean (Glycine max), common (oilseed) sunflower (Helianthus annuus), Russian thistle (Salsola kali) and velvetleaf (Abutilon theophrasti) were planted into a blend of loam soil and sand and treated preemergence with test chemicals formulated in a non-phytotoxic solvent mixture which included a surfactant.
(§3) At the same time, plants selected from these crop and weed species and also barley (winter barley, Hordeum vulgare), canarygrass (Phalaris minor), chickweed (common chickweed, Stellaria media) windgrass (Apera spica-venti) and deadnettle (henbit deadnettle, Lamium amplexicaule) were planted in pots containing Redi-Earth® planting medium (Scotts Company, 14111 Scottslawn Road, Marysville, Ohio 43041) comprising spaghnum peat moss, vermiculite, wetting agent and starter nutrients and treated with postemergence applications of test chemicals formulated in the same manner. Plants ranged in height from 2 to 18 cm (1- to 4-leaf stage) for postemergence treatments.
(§4) Treated plants and controls were maintained in a greenhouse for 13 to 15 days, after which time all species were compared to controls and visually evaluated. Plant response ratings, summarized in Table C, are based on a scale of 0 to 100 where 0 is no effect and 100 is complete control. A dash (-) response means no test result.

wild oat (Avena fatua) = test: Test C pre-/postemergence: wild oat
Description: as §2, §3, §4

[2] = system: lambsquarters (Chenopodium album); test: Test C pre-/postemergence: lambsquarters
Method in brief: as §1

[3] = system: foxtail, giant (giant foxtail, Setaria faberii); test: Test C pre-/postemergence: foxtail, giant
Method in brief: as §1

[4] = system: woolly cupgrass (Eriochloa villosa); test: Test C pre-/postemergence: woolly cupgrass
Method in brief: as §1

corn (Zea mays) = test: Test C pre-/postemergence: corn
Method in brief: as §1

[5] = system: bermudagrass (Cynodon dactylon); test: Test C pre-/postemergence: bermudagrass
Method in brief: as §1

[6] = system: velvetleaf (Abutilon theophrasti); test: Test C pre-/postemergence: velvetleaf
Method in brief: as §1

[7] = system: deadnettle (henbit deadnettle, Lamium amplexicaule); test: Test C postemergence: deadnettle
Method in brief: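 Visual 0–100 injury score vs untreated controls (0 none, 100 complete control), taken 13–15 d after treatment. Postemergence spray on potted plants, 2–18 cm, 1–4 leaves; greenhouse.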

[8] = Postemergence, 31 g ai/ha, scale 0 to 100 (0 no effect, 100 complete control)
[9] = Postemergence, 62 g ai/ha, scale 0 to 100 (0 no effect, 100 complete control)
[10] = Postemergence, 125 g ai/ha, scale 0 to 100, 0 no effect, 100 complete control
[11] = Postemergence, 250 g ai/ha, scale 0 to 100
[12] = Preemergence, 31 g ai/ha, scale of 0 to 100, 0 is no effect, 100 is complete control
[13] = Preemergence, 62 g ai/ha, scale of 0 to 100, 0 is no effect, 100 is complete control
[14] = Preemergence, 125 g ai/ha, scale 0 to 100, 0 no effect, 100 complete control
[15] = Preemergence, 250 g ai/ha, scale 0 to 100, 0 no effect, 100 complete control
[16] = Preemergence, 62 g ai/ha, scale 0 to 100, 0 no effect, 100 complete control

Cc1nn(-c2ccc(C(F)(F)F)cn2)nc1Cc1cccc(C(F)(F)F)c1 [Compound 106]
Plant response rating, Soybean (soybean (Glycine max); [8]): 10 | Plant response rating, Soybean (soybean (Glycine max); [9]): 15 | Plant response rating, Soybean (soybean (Glycine max); [10]): 60 | Plant response rating, Soybean (soybean (Glycine max); [11]): 65 | Plant response rating, Soybean (soybean (Glycine max); [12]): 0 | Plant response rating, Soybean (soybean (Glycine max); [13]): 0 | Plant response rating, Soybean (soybean (Glycine max); [14]): 5 | Plant response rating, Soybean (soybean (Glycine max); [15]): 5 | Plant response rating, Surinam Grass [1, 8]: 20 | Plant response rating, Surinam Grass [1, 9]: 25 | Plant response rating, Surinam Grass [1, 10]: 35 | Plant response rating, Surinam Grass [1, 11]: 40 | Plant response rating, Surinam Grass [1, 12]: 5 | Plant response rating, Surinam Grass [1, 13]: 20 | Plant response rating, Surinam Grass [1, 14]: 80 | Plant response rating, Surinam Grass [1, 15]: 90 | Plant response rating, Oat, Wild (wild oat (Avena fatua); [8]): 10 | Plant response rating, Oat, Wild (wild oat (Avena fatua); [9]): 30 | Plant response rating, Oat, Wild (wild oat (Avena fatua); [10]): 45 | Plant response rating, Oat, Wild (wild oat (Avena fatua); [11]): 45 | Plant response rating, Oat, Wild (wild oat (Avena fatua); [12]): 10 | Plant response rating, Oat, Wild (wild oat (Avena fatua); [13]): 45 | Plant response rating, Oat, Wild (wild oat (Avena fatua); [14]): 70 | Plant response rating, Oat, Wild (wild oat (Avena fatua); [15]): 80 | Plant response rating, Lambsquarters [2, 8]: 80 | Plant response rating, Lambsquarters [2, 9]: 100 | Plant response rating, Lambsquarters [2, 10]: 100 | Plant response rating, Lambsquarters [2, 11]: 100 | Plant response rating, Lambsquarters [2, 12]: 85 | Plant response rating, Lambsquarters [2, 13]: 100 | Plant response rating, Lambsquarters [2, 14]: 100 | Plant response rating, Lambsquarters [2, 15]: 100 | Plant response rating, Foxtail, Giant [3, 8]: 40 | Plant response rating, Foxtail, Giant [3, 9]: 40 | Plant response rating, Foxtail, Giant [3, 10]: 55 | Plant response rating, Foxtail, Giant [3, 11]: 55 | Plant response rating, Foxtail, Giant [3, 12]: 65 | Plant response rating, Foxtail, Giant [3, 13]: 85 | Plant response rating, Foxtail, Giant [3, 14]: 100 | Plant response rating, Foxtail, Giant [3, 15]: 100 | Plant response rating, Cupgrass, Woolly [4, 8]: 5 | Plant response rating, Cupgrass, Woolly [4, 9]: 45 | Plant response rating, Cupgrass, Woolly [4, 10]: 45 | Plant response rating, Cupgrass, Woolly [4, 11]: 50 | Plant response rating, Cupgrass, Woolly [4, 12]: 5 | Plant response rating, Cupgrass, Woolly [4, 13]: 60 | Plant response rating, Cupgrass, Woolly [4, 14]: 80 | Plant response rating, Cupgrass, Woolly [4, 15]: 90 | Plant response rating, Corn (corn (Zea mays); [8]): 10 | Plant response rating, Corn (corn (Zea mays); [9]): 15 | Plant response rating, Corn (corn (Zea mays); [10]): 15 | Plant response rating, Corn (corn (Zea mays); [11]): 55 | Plant response rating, Corn (corn (Zea mays); [12]): 0 | Plant response rating, Corn (corn (Zea mays); [16]): 0 | Plant response rating, Corn (corn (Zea mays); [14]): 0 | Plant response rating, Corn (corn (Zea mays); [15]): 10 | Plant response rating, Bermudagrass [5, 8]: 40 | Plant response rating, Bermudagrass [5, 9]: 40 | Plant response rating, Bermudagrass [5, 10]: 55 | Plant response rating, Bermudagrass [5, 11]: 80 | Plant response rating, Bermudagrass [5, 12]: 100 | Plant response rating, Bermudagrass [5, 16]: 100 | Plant response rating, Bermudagrass [5, 14]: 100 | Plant response rating, Bermudagrass [5, 15]: 100 | Plant response rating, Velvetleaf [6, 8]: 5 | Plant response rating, Velvetleaf [6, 9]: 45 | Plant response rating, Velvetleaf [6, 10]: 65 | Plant response rating, Velvetleaf [6, 11]: 65 | Plant response rating, Velvetleaf [6, 12]: 0 | Plant response rating, Velvetleaf [6, 13]: 0 | Plant response rating, Velvetleaf [6, 14]: 0 | Plant response rating, Velvetleaf [6, 15]: 10 | Plant response rating, Deadnettle ([7]; 31 g ai/ha, scale 0 to 100 (0 no effect, 100 complete control)): 75 | Plant response rating, Deadnettle ([7]; 62 g ai/ha, scale 0 to 100 (0 no effect, 100 complete control)): 80 | Plant response rating, Deadnettle ([7]; 125 g ai/ha, scale 0 to 100, 0 no effect, 100 complete control): 90 | Plant response rating, Deadnettle ([7]; 250 g ai/ha, scale 0 to 100): 90
